According to patent US20220073536A1 (Rigel Pharmaceuticals, Inc., priority 2003, published 2022):
Where two headings read alike, the source gives them in different places.

Tested on: cultured human mast cells (CHMC)
Test: CHMC low cell density IgE activation: tryptase assay
Assay type: cell-based
Settings: IgE activation
In short: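 Tryptase release, fluorogenic substrate, 30 min RT. Prior anti-IgE stimulation of CHMC, 30 min, 37 °C, after 1 hr preincubation at 1000–1500 cells/well in MT; unstimulated wells received MT.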

[1] = Homo sapiens, Mast cell, low cell density CHMC, tryptase, 3 pt, read-out: LD Tryptase, CHMC, IgE, 3 pt
[2] = low cell density CHMC, tryptase, 3 pt, read-out: LD Tryptase, CHMC, IgE, 3 pt
[3] = low cell density CHMC, tryptase, 8 pt, read-out: LD Tryptase, CHMC, IgE, 8 pt
[4] = Homo sapiens, Mast cell, low cell density CHMC, tryptase, 8 pt, read-out: LD Tryptase, CHMC, IgE, 8 pt
[5] = low cell density CHMC, tryptase release, 8 pt, read-out: LD Tryptase, CHMC, IgE, 8 pt
[6] = low cell density, 8 pt, read-out: LD Tryptase, CHMC, IgE, 8 pt
[7] = low cell density, 3 pt, read-out: LD Tryptase, CHMC, IgE, 3 pt

Row | Compound | IC50 [2] | IC50 [3] | also measured
1 | NC(=O)c1ccc(Nc2ncc(F)c(NC3CCCC3)n2)cc1 [Compound 1349] |  |  | IC50 [1]: > 10 µM
2 | CCN(CC)CCNC(=O)c1ccc(Nc2ncc(F)c(NC3CCCC3)n2)cc1 [Compound 1350, N4-(Cyclopentyl)-N2-(4-[2-(N,N-diethylamino]ethyleneaminocarbonyl)phenyl)-5-fluoro-2,4-pyrimidinediamine] | > 10 µM | < 10 µM | 
3 | COc1cc(Nc2nc(Nc3ccc(C(N)=O)cc3)ncc2F)ccc1Cl [Compound 1352] |  |  | IC50 [1]: < 10 µM
4 | COc1ccc(Nc2nc(Nc3ccc(C(N)=O)c(Cl)c3)ncc2F)cc1Cl [Compound 1353] |  |  | IC50 [1]: < 10 µM; IC50 [4]: < 10 µM
5 | COc1cc(Nc2nc(Nc3ccc(C(N)=O)c(Cl)c3)ncc2F)ccc1Cl [Compound 1354] |  |  | IC50 [1]: < 10 µM; IC50 [4]: < 10 µM
6 | CCN(CC)CCNC(=O)c1ccc(Nc2ncc(F)c(Nc3ccc(Cl)c(OC)c3)n2)cc1 [Compound 1355, N4-(4-Chloro-3-methoxyphenyl)-N2-(4-[2-[N,N-diethylamino]ethyleneaminocarbonyl]phenyl)-5-fluoro-2,4-pyrimidinediamine] | < 10 µM | < 10 µM | 
7 | NC(=O)c1ccc(Nc2ncc(F)c(Nc3ccccc3)n2)cc1 [Compound 1357, N2-(4-Aminocarbonylphenyl)-5-fluoro-N4-phenyl-2,4-pyrimidinediamine] |  |  | IC50 [1]: < 10 µM; IC50 [4]: < 10 µM
8 | (R)-N2- (3-Chloro-4-methoxyphenyl)-5-fluoro-N4- (2-methyl-3-oxo-2H,4H-benz[1,4]oxazin-6-yl)-2,4-pyrimidinediamine (1R)-(−)-Camphorsulfonic Acid Salt [Compound 212] |  |  | IC50 (low cell density CHMC, tryptase release, 3 pt, read-out: LD Tryptase, CHMC, IgE, 3 pt): < 10 µM; IC50 [5]: < 10 µM
9 | (R)-N2- (3-Chloro-4-methoxyphenyl)-5-fluoro-N4- (2-methyl-3-oxo-2H,4H-benz[1,4]oxazin-6-yl)-2,4-pyrimidinediamine (1S)-(+)-Camphorsulfonic Acid Salt [Compound 209] |  |  | IC50 [5]: < 10 µM
10 | (R)-N2-[3- (N-tert-Butoxycarbonylamino)methylenephenyl]-5-fluoro-N4- (2-methyl-3-oxo-2H,4H-benz[1,4]oxazin-6-yl) [Compound 1277] | < 10 µM | < 10 µM | 
11 | (R,S)-N2- (3,5-Dimethylphenyl)-5-fluoro-N4-(tetrahydrofurano[2,3]-2H-benz[1,4]oxazin-6-yl)-2,4-pyrimidinediamine [Compound 252] |  |  | IC50 [5]: < 10 µM
12 | (S)-5-Fluoro-[1- (2-hydroxymethyl)-2-trifluoromethylbenzimidazol-5-yl]-N4- (2-methyl-3-oxo-2H,4H-benz[1,4]oxazin-6-yl)-2,4-pyrimidinediamine [Compound 923] |  |  | IC50 [6]: < 10 µM
13 | (S)-N2-[3- (N-tert-Butoxycarbonylamino)methylenephenyl]-5-fluoro-N4- (2-methyl-3-oxo-2H,4H-benz[1,4]oxazin-6-yl)-2,4-pyrimidinediamine [Compound 1276] | < 10 µM | < 10 µM | 
14 | N2- (2,2-Dimethyl-3-oxo-4H-benz[1,4]oxazin-6-yl)-5-fluoro-N4-(4-[N-[methoxycarbonylmethylene]aminocarbonyl]phenyl)-2,4-pyrimidinediamine [Compound 1331] | < 10 µM | < 10 µM | 
15 | N2- (2-Aminocarbonylphenyl)-N4- (2,2-dimethyl-3-oxo-4H-5-pyrid[1,4]oxazin-6-yl)-5-fluoro-2,4-pyrimidinediamine [Compound 1316] | < 10 µM | > 10 µM | 
16 | N2- (3,5-Dichloro-4-hydroxyphenyl)-5-fluoro-N4- (4-[N-[methoxycarbonylmethylene]aminocarbonyl]phenyl)-2,4-pyrimidinediamine [Compound 1329] |  | < 10 µM | 
17 | N2- (3-Chloro-4-hydroxy-5-methylphenyl)-N4-[3,4-(difluoromethylenedioxy)phenyl]-5-fluoro-2,4-pyrimidinediamine [Compound 567] |  |  | IC50 (low cell density CHMC, tryptase release, 8 point, read-out: LD Tryptase, CHMC, IgE, 8 pt): < 10 µM
18 | N2- (4-Aminocarbonylphenyl)-5-fluoro-N4- (4-[N-[methoxycarbonylmethylene]aminocarbonyl]phenyl)-2,4-pyrimidinediamine [Compound 1333] | > 10 µM | > 10 µM | 
19 | N2- (4-Aminocarbonylphenyl)-N4- (2,2-dimethyl-3-oxo-4H-5-pyrid[1,4]oxazin-6-yl)-5-fluoro-2,4-pyrimidinediamine [Compound 1315] | < 10 µM |  | 
20 | N2-[3,5-Bis (hydroxymethylene)phenyl]-N4- (3,4-dichlorophenyl)-5-fluoro-2,4-pyrimidinediamine [Compound 346] |  | < 10 µM | 

Row | Compound | IC50 [2] | IC50 [3] | also measured
21 | N2-[3,5-Bis (hydroxymethylene)phenyl]-N4- (3,4-ethylenedioxyphenyl)-5-fluoro-2,4-pyrimidinediamine [Compound 342] |  | < 10 µM | 
22 | N2-[3,5-Bis (hydroxymethylene)phenyl]-N4- (3-chloro-4-methoxyphenyl)-5-fluoro-2,4-pyrimidinediamine [Compound 345] |  | < 10 µM | 
23 | N4- (2,2-Dimethyl-3-oxo-4H-5-pyrid[1,4]oxazin-6-yl)-5-fluoro-N2- (3-methoxycarbonylppyrid-2yl)-2,4-pyrimidinediamine [Compound 1314] | < 10 µM |  | 
24 | N4- (2,2-Dimethyl-3-oxo-4H-5-pyrid[1,4]oxazin-6-yl)-5-fluoro-N2- (4-methoxycarbonylphenyl)-2,4-pyrimidinediamine [Compound 1313] | < 10 µM |  | 
25 | N4- (2,2-Dimethyl-3-oxo-4H-5-pyrid[1,4]oxazin-6-yl)-5-fluoro-[1-(2-hydroxymethyl)-2-trifluoromethylbenzimidazol-5-yl]-2,4-pyrimidinediamine [Compound 924] |  |  | IC50 [6]: < 10 µM
26 | N4- (2,2-Dimethyl-3-oxo-4H-5-pyrid[1,4]oxazin-6-yl)-N2- (1-methyl-2-trifluoromethylbenzimidazol-5-yl)-2,4-pyrimidinediamine [Compound 915] |  |  | IC50 [6]: < 10 µM
27 | N4- (2,2-Dimethyl-3-oxo-4H-N4-oxo-5-pyrido[1,4]oxazin-6-yl)-5-fluoro-N2- (3,4,5-trimethoxyphenyl)-2,4-pyrimidinediamine [Compound 1340] | < 10 µM | < 10 µM | 
28 | N4- (2,2-Dimethyl-3-oxo-4H-benz[1,4]oxazin-6-yl)-5-fluoro-N2-{1-methyl-2-[ (methylsulfonyl)methyl]benzimidazol-5-yl}-2,4-pyrimidinediamine [Compound 967] |  |  | IC50 [7]: < 10 µM; IC50 [6]: < 10 µM
29 | N4- (2,2-Dimethyl-3-oxo-4H-benz[1,4]oxazin-6-yl)-5-fluoro-[1-(2-hydroxymethyl)-2-trifluoromethylbenzimidazol-5-yl]-2,4-pyrimidinediamine [Compound 922] |  |  | IC50 [6]: < 10 µM
30 | N4- (3,4-Dichlorophenyl)-5-fluoro-N2- (4-[N-[methoxycarbonylmethylene]aminocarbonyl]phenyl)-N4-methyl-2,4-pyrimidinediamine [Compound 1348] | < 10 µM |  | 
31 | N4- (3,4-Dichlorophenyl)-5-fluoro-N2-[2- (4-morpholinomethyl)-1H-benzimidazol-5-yl]-2,4-pyrimidinediamine [Compound 959] |  |  | IC50 [6]: < 10 µM
32 | N4- (3,4-Dichlorophenyl)-5-fluoro-[1- (2-hydroxymethyl)-2-trifluoromethylbenzimidazol-5-yl]-2,4-pyrimidinediamine [Compound 920] |  |  | IC50 [7]: < 10 µM; IC50 [6]: < 10 µM
33 | N4- (3,4-Ethylenedioxyphenyl)-5-fluoro-N2-[3,4-(tetrafluoroethylenedioxy)phenyl]-2,4-pyrimidinediamine [Compound 363] | < 10 µM |  | 
34 | N4- (3-Chloro-4-methoxyphenyl)-5-fluoro-[1- (2-hydroxymethyl)-2-trifluoromethylbenzimidazol-5-yl]-2,4-pyrimidinediamine [Compound 921] |  |  | IC50 [7]: < 10 µM; IC50 [6]: < 10 µM
35 | N4- (5-Amino-1,2,4-triazol-3-yl)-5-fluoro-N2-[3- (N-methylamino)carbonylmethyleneoxyphenyl]-2,4-pyrimidinediamine [Compound 1251] |  | < 10 µM | 
36 | N4- (Aminocarbonylphenyl)-5-fluoro-N2- (4-[N-[methoxycarbonylmethylene]aminocarbonyl]phenyl)-2,4-pyrimidinediamine [Compound 1338] | < 10 µM | < 10 µM | 
37 | N4- (Cyclopentyl)-5-fluoro-N2- (4-[N-[methoxycarbonylmethylene]aminocarbonyl]phenyl)-2,4-pyrimidinediamine [Compound 1351] | < 10 µM | < 10 µM | 
38 | N4-[3,4- (Difluoromethylenedioxy)phenyl]-5-fluoro-N2- (3,4,5-trimethoxyphenyl)-2,4-pyrimidinediamine [Compound 561] |  |  | IC50 [6]: < 10 µM
39 | N4-[3,4- (Difluoromethylenedioxy)phenyl]-5-fluoro-N2-[2- (N-methylamino)carbonylindol-7-yl]-2,4-pyrimidinediamine [Compound 570] |  |  | IC50 (low cell density CHMC, tryptase release, 3 point, read-out: LD Tryptase, CHMC, IgE, 3 pt): < 10 µM
40 | N4-[3,4- (Difluoromethylenedioxy)phenyl]-N2- (3,5-dimethoxyphenyl)-5-fluoro-2,4-pyrimidinediamine [Compound 562] |  |  | IC50 [7]: < 10 µM; IC50 [6]: < 10 µM
